This passage reports ED50 results from article PMC10848157, “Assessing NH300094, a novel dopamine and serotonin receptor modulator with cognitive enhancement property for treating schizophrenia” (Frontiers in Pharmacology, 2024).

This data set can be described thus: Spontaneous locomotor activity test in mice. Conditions: mouse, in vivo; single oral dose, male ICR mice; read-out: ED50, inhibition of spontaneous locomotor activity.

On to `O=C1CCc2cc(OCCCN3CCC(c4noc5cc(F)ccc45)CC3)cc3c2N1CC3` [NH300094, 8-(3-(4-(6-fluorobenzo [d]isoxazol-3-yl)piperidin-1-yl)propoxy)-1,2,5,6-tetrahydro-4H-pyrrolo [3,2,1-ij] quinolin-4-one], for which the ED50 at 60 min is ~0.49 mg/kg.
